Source: publication PMC6501587 (The Journal of neuroscience : the official journal of the …, 2009)
Numbering of substitutions follows the chain as printed. Entries after “also recorded” stand apart in the source; their conditions may differ. Like-named read-outs stand apart in the source and are kept apart here.

Experiments:
P2X4/2b chimera = format: cell-based, rat; settings: oocytes
P2X2bR [1] = target: T1, P2X2bR (Rattus norvegicus, UniProt P49653, DEL370-438); format: cell-based; settings: HEK293 cells
T1 sequence (P49653 with tags, fused parts or gaps DEL370-438): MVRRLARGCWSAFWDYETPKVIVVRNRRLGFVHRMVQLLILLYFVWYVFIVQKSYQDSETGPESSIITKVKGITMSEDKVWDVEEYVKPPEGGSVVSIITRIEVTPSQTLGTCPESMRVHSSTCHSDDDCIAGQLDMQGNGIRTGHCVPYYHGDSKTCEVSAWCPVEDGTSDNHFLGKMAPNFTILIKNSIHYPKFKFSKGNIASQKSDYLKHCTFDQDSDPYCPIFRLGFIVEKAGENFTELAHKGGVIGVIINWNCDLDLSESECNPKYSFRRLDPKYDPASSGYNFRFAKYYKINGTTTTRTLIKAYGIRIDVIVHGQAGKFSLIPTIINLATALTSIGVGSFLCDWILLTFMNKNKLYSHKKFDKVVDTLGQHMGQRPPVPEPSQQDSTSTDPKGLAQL

P2X2bR [2] = target: T1, P2X2bR; format: cell-based; settings: oocytes
P2X2a-C430S [3] = target: T2, P2X2a-C430S (Rattus norvegicus, UniProt P49653, C430S); format: cell-based; settings: HEK293 cells
T2 sequence (P49653 1-472 C430S): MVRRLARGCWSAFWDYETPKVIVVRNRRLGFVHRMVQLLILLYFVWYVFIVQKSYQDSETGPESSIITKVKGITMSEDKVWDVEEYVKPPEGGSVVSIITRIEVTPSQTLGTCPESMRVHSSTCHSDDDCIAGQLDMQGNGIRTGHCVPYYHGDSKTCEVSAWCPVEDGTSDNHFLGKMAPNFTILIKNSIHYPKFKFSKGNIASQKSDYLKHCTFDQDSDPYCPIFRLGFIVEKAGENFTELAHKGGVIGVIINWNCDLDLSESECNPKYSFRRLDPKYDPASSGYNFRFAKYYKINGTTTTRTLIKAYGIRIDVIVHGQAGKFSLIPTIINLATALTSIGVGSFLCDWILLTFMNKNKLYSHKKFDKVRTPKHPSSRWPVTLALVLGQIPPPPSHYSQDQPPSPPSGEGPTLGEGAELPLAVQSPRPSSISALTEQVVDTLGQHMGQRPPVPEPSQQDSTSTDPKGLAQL

P2X2a-C430S [4] = target: T2, P2X2a-C430S; format: cell-based
P2X4R = target: T3, P2X4R (Rattus norvegicus, UniProt P51577); format: cell-based; settings: oocytes
T3 sequence (P51577 1-388): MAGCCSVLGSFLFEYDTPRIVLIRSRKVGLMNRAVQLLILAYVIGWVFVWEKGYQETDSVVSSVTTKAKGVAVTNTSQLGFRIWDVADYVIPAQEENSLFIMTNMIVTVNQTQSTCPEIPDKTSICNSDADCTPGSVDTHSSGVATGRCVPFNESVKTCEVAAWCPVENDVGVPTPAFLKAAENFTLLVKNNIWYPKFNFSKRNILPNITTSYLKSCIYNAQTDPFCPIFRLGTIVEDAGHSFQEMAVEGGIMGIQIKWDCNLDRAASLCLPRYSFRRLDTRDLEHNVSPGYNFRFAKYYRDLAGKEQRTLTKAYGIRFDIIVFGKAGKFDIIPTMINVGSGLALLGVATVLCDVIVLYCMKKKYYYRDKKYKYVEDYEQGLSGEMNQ

P2X2aR [5] = target: T4, P2X2aR (Rattus norvegicus, UniProt P49653); format: cell-based
T4 sequence (P49653 1-472): T2 sequence (P49653 1-472 C430S) with S430C

P2X4/2a chimera = format: cell-based, rat; settings: oocytes
P2X2a-C430A = target: T5, P2X2a-C430A (Rattus norvegicus, UniProt P49653, C430A); format: cell-based; settings: oocytes
T5 sequence (P49653 1-472 C430A): T2 sequence (P49653 1-472 C430S) with S430A

P2X2aR [6] = target: T4, P2X2aR; assay: ATP-evoked currents, whole-cell patch clamp, HEK293 cells expressing P2X2aR; format: cell-based
P2X4/2a-C430A chimera = settings: oocytes; supplemental Fig. 3

OO [H2O2, hydrogen peroxide]
sensitivity to H2O2 (P2X4/2b chimera): totally resistant | sensitivity to H2O2 (P2X2bR [1]; 1 mM): completely resistant | sensitivity to H2O2 (P2X2bR [2]): totally resistant | sensitivity to H2O2 (P2X2a-C430S [3]; 1 mM): completely resistant | effect of concentrations larger than 1 mM on cells (oocytes and HEK293 cells): cell damage and membrane dissolution | sensitivity to H2O2 (P2X2a-C430S [4]; oocytes): totally resistant | inhibition of receptor activity (P2X4R; 1 mM H2O2): 43.8 ± 0.1% | increase of ATP-gated currents (P2X2aR [5]; 0.3 mM H2O2, ATP ~EC15, oocytes): 2.8 ± 0.3 fold | increase of the currents (P2X4/2a chimera; 1 mM H2O2): 1.9 ± 0.2 fold | currents remaining increased after washout (P2X4/2a chimera; 10 min washout after 1 mM H2O2): 0.3 ± 0.1 fold | sensitivity to H2O2 (P2X2a-C430A): totally resistant | increase of ATP-evoked currents (P2X2aR [6]; 1 mM H2O2, ATP ~EC15): 1.9 ± 0.3 fold

mercury
effect on ATP concentration-response curve (P2X4/2b chimera; 10 μM mercury): did not displace | effect on receptor deactivation (P2X4/2b chimera; 10 μM mercury): nor modified receptor deactivation | effect on receptor deactivation (P2X4/2b chimera; 10 μM mercury, listed as Mercury): not significantly affected | sensitivity to mercury (P2X4/2b chimera; 10 μM): mercury resistant; also recorded: insensitivity | increase of ATP-gated currents (P2X2bR [1]; 10 μM metal, ATP ~EC15): 2.5 ± 0.5 fold | effect on rate of deactivation (P2X2bR [2]; mercury): not significantly affected | sensitivity to mercury (P2X2bR [2]; supplemental Fig. 3): residual mercury-dependent potentiation | increase of ATP-gated currents (P2X2a-C430S [3]; 10 μM metal, ATP ~EC15): 1.9 ± 0.2 fold | sensitivity to mercury (P2X4/2a-C430A chimera): insensitivity | potentiation of ATP-evoked currents (P2X2a-C430S [4]; 10 μM mercury, ATP ~EC15, oocytes): 2.2 ± 0.9 fold | reversibility of effect (P2X2a-C430S [4]; mercury): easily reversible | sensitivity to mercury (P2X2a-C430S [4]; oocytes, supplemental Fig. 3): residual mercury-dependent potentiation | effect on ATP-induced currents (P2X4R; 10 μM metal pre-applied 1 min and co-applied with 10 μM ATP): inhibited | washout time to attain control currents (P2X4R; after 10 μM metal): 20 to 30 min | effect on the ATP-gated current (P2X2aR [5]; 10 μM metal pre-applied 1 min and co-applied with 30 μM ATP, oocytes): potentiated | potentiation of ATP-evoked currents (P2X2aR [5]; 10 μM metal, 1 min prior and during ATP (~EC15), oocytes): 12.3 ± 2.6 fold | potentiation of response still present after washout (P2X2aR [5]; 20 min after washout of 10 μM metal, oocytes): 35 ± 12% | reversibility of effect on peak current amplitude (P2X2aR [5]; after 10 and 20 min washouts, oocytes): not completely reversible | 10–90% deactivation time (P2X2aR [5]; in the presence of mercury, oocytes): 17.2 ± 2.8 s | decrease in the current amplitude on prolonged washout of the metal (P2X2aR [5]; mercury-induced potentiation, wild type receptor): ~70% | effect on maximal ATP response (P2X4/2a chimera; 10 μM mercury): without significantly altering | potentiation of 1 μM ATP-induced current (P2X4/2a chimera; 10 μM metal, 1 μM ATP): 3.7 ± 0.8 fold | 10–90% deactivation time (P2X4/2a chimera; in the presence of mercury): 104.7 ± 11.5 s | increase of 10–90% deactivation time (P2X4/2a chimera; in the presence of mercury): 9 fold | sensitivity to mercury (P2X4/2a chimera): mercury-sensitive; also recorded: residual mercury-dependent potentiation | potentiation of ATP-evoked currents (P2X2a-C430A; 10 μM mercury, ATP ~EC15): 3.3 ± 0.7 fold | reversibility of effect (P2X2a-C430A; mercury): totally reversible; also recorded: easily reversible | sensitivity to mercury (P2X2a-C430A; supplemental Fig. 3): residual mercury-dependent potentiation | increase of ATP-evoked currents (P2X2aR [6]; 10 μM metal, ATP ~EC15): 5.9 ± 1.3 fold
